Reference: article PMC10281575, “PfCRT mutations conferring piperaquine resistance in falciparum malaria shape the kinetics of quinoline drug binding and transport” (PLOS Pathogens, 2023)
Values joined by “and” are separate entries in the source; they are usually repeats but may differ in a detail not shown here. Identical values can stand only once.

Target: T1, PfCRT^Dd2 (Plasmodium falciparum, UniProt Q8IBZ9, A220S/I356T/K76T/M74I/N326S/N75E/Q271E/R371I)
T1 sequence (Q8IBZ9 1-424 M74I/N75E/K76T/A220S/Q271E/N326S/I356T/R371I): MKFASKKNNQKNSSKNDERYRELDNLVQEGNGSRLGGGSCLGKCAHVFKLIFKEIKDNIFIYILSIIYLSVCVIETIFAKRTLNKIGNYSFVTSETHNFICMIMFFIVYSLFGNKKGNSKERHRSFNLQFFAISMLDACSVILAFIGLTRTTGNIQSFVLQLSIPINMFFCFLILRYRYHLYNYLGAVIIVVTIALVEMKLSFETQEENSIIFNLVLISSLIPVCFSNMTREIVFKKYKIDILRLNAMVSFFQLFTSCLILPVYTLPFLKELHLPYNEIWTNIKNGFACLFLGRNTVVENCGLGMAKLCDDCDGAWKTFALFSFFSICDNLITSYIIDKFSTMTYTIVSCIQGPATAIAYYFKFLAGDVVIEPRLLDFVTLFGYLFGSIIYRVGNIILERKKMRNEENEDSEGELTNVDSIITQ
Assay: Competition kinetics of drug transport (radiolabeled substrate plus cold inhibitor), PfCRT^Dd2-expressing oocytes
Format: cell-based
Design: expressed in transfected cells; host or cells: Xenopus laevis oocytes injected with in vitro transcribed RNA (pSP64T)
Conditions: single replicates
Experimental: The experimental procedure and the data analysis were as described above.
The difference between the two models lies in the value of α, a parameter describing how much the affinity for the substrate changes when the inhibitor is already bound, and vice versa. […] The resulting Vmax,app values and the Vmax,app/KM,app ratios were plotted as a function of the inhibitor concentration (Fig 5A).
Drug transport assays were performed as previously described. Briefly, measurements of radiolabeled drug uptake were made over 1 h, unless otherwise specified. […] Where specified, one or more unlabeled drugs were also present at the indicated concentrations. […] The uptake assays were terminated by removing the oocytes from the reaction medium and washing them three times with 2 mL of ice-cold ND96 buffer. Each oocyte was transferred to a separate scintillation vial and lysed by the addition of 200 μL of a 5% SDS solution. The radioactivity in the sample was measured using a liquid scintillation analyser Tri-Carb 4910 TR (PerkinElmer). Water-injected oocytes were analyzed in parallel as a negative control. The buffer from each condition was measured in duplicate in parallel to each experiment to transform counts per minute into pmol of drug. Drug uptake attributable to PfCRT was determined by subtracting the background uptake from water-injected oocytes from that of PfCRT-expressing oocytes. In all cases, at least three independent experiments were performed on oocytes from different frogs, and for each condition in an experiment, measurements were made from 10 oocytes per treatment.
The following equations were adopted from Segel (1993), and the reader is referred to that text for the assumptions made in the author’s approach in the derivation of each equation [31]. The concentration of substrate is denoted as [S1] and the concentration of the inhibiting substrate is denoted as [S2]. KS1 and KS2 are the dissociation constants for the respective substrate-protein complexes.
Analyses of the kinetic data were performed using SigmaPlot version 13.0 and Python. The drug competition models were globally fit to the kinetic data using the least-squares method and ranked according to their corrected Akaike information criterion difference (ΔAICC) and their Akaike weight, using Python. The two top-ranked models were compared using an F-test.
This factor reflects how much the affinity of the transporter for one drug changes when the other drug is already bound in the protein cavity. In the former model, α > 0 and α ≠ 1. In the latter model, it could be thought of as if α = 1. Because of this, discriminating between the two models also means determining the value of α. In Mixed-type (Partial) inhibition, the apparent maximal velocity (Vmax,app) is given by Eq 22, Vmax,app=Vmax(1+β[S2]/αKS2)/(1+[S2]/αKS2) (Eq 22)
Vmax,app is the maximal rate of substrate transport at a certain inhibitor concentration. The half-maximal inhibitory concentration is given by the term in the denominator different from [S2], which in this case is αKS2. This means that by plotting Vmax,app as a function of [S2], the value of αKS2 can be derived after fitting the curve to Eq 23.
The half-maximal inhibitory concentration derived from this hyperbolic equation is equal to KS2. By plotting Vmax,app/KM,app as a function of [S2], one can derive KS2 after fitting the curve to Eq 25. The value of α can then be calculated dividing αKS2 by KS2.

Compound: Clc1ccc2c(N3CCN(CCCN4CCN(c5ccnc6cc(Cl)ccc56)CC4)CC3)ccnc2c1 [PPQ, piperaquine]
- PfCRTDd2-mediated PPQ transport 10 µM PPQ (0 µM CQ): 7.56 pmol oocyte-1 h-1 and 10.37 pmol oocyte-1 h-1 and 9.52 pmol oocyte-1 h-1
- PfCRTDd2-mediated PPQ transport 10 µM PPQ (25 µM CQ): 5.90 pmol oocyte-1 h-1 and 7.56 pmol oocyte-1 h-1 and 12.12 pmol oocyte-1 h-1
- PfCRTDd2-mediated PPQ transport 10 µM PPQ (50 µM CQ): 9.48 pmol oocyte-1 h-1 and 7.04 pmol oocyte-1 h-1 and 8.33 pmol oocyte-1 h-1
- PfCRTDd2-mediated PPQ transport 10 µM PPQ (125 µM CQ): 5.75 pmol oocyte-1 h-1 and 8.54 pmol oocyte-1 h-1 and 9.92 pmol oocyte-1 h-1
- PfCRTDd2-mediated PPQ transport 10 µM PPQ (200 µM CQ): 6.96 pmol oocyte-1 h-1 and 8.23 pmol oocyte-1 h-1 and 6.73 pmol oocyte-1 h-1
- PfCRTDd2-mediated PPQ transport 10 µM PPQ (400 µM CQ): 6.34 pmol oocyte-1 h-1 and 7.80 pmol oocyte-1 h-1 and 6.93 pmol oocyte-1 h-1
- PfCRTDd2-mediated PPQ transport 50 µM PPQ (0 µM CQ): 28.14 pmol oocyte-1 h-1 and 21.87 pmol oocyte-1 h-1 and 89.78 pmol oocyte-1 h-1 and 46.28 pmol oocyte-1 h-1 and 30.01 pmol oocyte-1 h-1 and 33.33 pmol oocyte-1 h-1
- PfCRTDd2-mediated PPQ transport 50 µM PPQ (25 µM CQ): 38.92 pmol oocyte-1 h-1 and 37.28 pmol oocyte-1 h-1 and 39.83 pmol oocyte-1 h-1
- PfCRTDd2-mediated PPQ transport 50 µM PPQ (50 µM CQ): 39.65 pmol oocyte-1 h-1 and 31.99 pmol oocyte-1 h-1 and 26.06 pmol oocyte-1 h-1
- PfCRTDd2-mediated PPQ transport 50 µM PPQ (125 µM CQ): 26.33 pmol oocyte-1 h-1 and 27.41 pmol oocyte-1 h-1 and 34.41 pmol oocyte-1 h-1
- PfCRTDd2-mediated PPQ transport 50 µM PPQ (200 µM CQ): 26.27 pmol oocyte-1 h-1 and 27.81 pmol oocyte-1 h-1 and 32.81 pmol oocyte-1 h-1
- PfCRTDd2-mediated PPQ transport 50 µM PPQ (400 µM CQ): 19.16 pmol oocyte-1 h-1 and 25.87 pmol oocyte-1 h-1 and 24.41 pmol oocyte-1 h-1
- PfCRTDd2-mediated PPQ transport 100 µM PPQ (0 µM CQ): 59.97 pmol oocyte-1 h-1 and 33.72 pmol oocyte-1 h-1 and 64.52 pmol oocyte-1 h-1
- PfCRTDd2-mediated PPQ transport 100 µM PPQ (25 µM CQ): 49.79 pmol oocyte-1 h-1 and 57.28 pmol oocyte-1 h-1 and 48.06 pmol oocyte-1 h-1
- PfCRTDd2-mediated PPQ transport 100 µM PPQ (50 µM CQ): 52.12 pmol oocyte-1 h-1 and 55.31 pmol oocyte-1 h-1 and 42.70 pmol oocyte-1 h-1
- PfCRTDd2-mediated PPQ transport 100 µM PPQ (125 µM CQ): 58.54 pmol oocyte-1 h-1 and 43.73 pmol oocyte-1 h-1 and 42.26 pmol oocyte-1 h-1
- PfCRTDd2-mediated PPQ transport 100 µM PPQ (200 µM CQ): 53.47 pmol oocyte-1 h-1 and 42.58 pmol oocyte-1 h-1 and 43.06 pmol oocyte-1 h-1
- PfCRTDd2-mediated PPQ transport 100 µM PPQ (400 µM CQ): 44.21 pmol oocyte-1 h-1 and 36.58 pmol oocyte-1 h-1 and 41.48 pmol oocyte-1 h-1
- PfCRTDd2-mediated PPQ transport 200 µM PPQ (0 µM CQ): 87.13 pmol oocyte-1 h-1 and 109.05 pmol oocyte-1 h-1 and 57.84 pmol oocyte-1 h-1
- PfCRTDd2-mediated PPQ transport 200 µM PPQ (25 µM CQ): 75.61 pmol oocyte-1 h-1 and 76.21 pmol oocyte-1 h-1 and 79.18 pmol oocyte-1 h-1
- PfCRTDd2-mediated PPQ transport 200 µM PPQ (50 µM CQ): 78.47 pmol oocyte-1 h-1 and 73.08 pmol oocyte-1 h-1 and 76.77 pmol oocyte-1 h-1
- PfCRTDd2-mediated PPQ transport 200 µM PPQ (125 µM CQ): 74.89 pmol oocyte-1 h-1 and 84.24 pmol oocyte-1 h-1 and 63.70 pmol oocyte-1 h-1
- PfCRTDd2-mediated PPQ transport 200 µM PPQ (200 µM CQ): 63.70 pmol oocyte-1 h-1 and 74.56 pmol oocyte-1 h-1 and 71.51 pmol oocyte-1 h-1
- PfCRTDd2-mediated PPQ transport 200 µM PPQ (400 µM CQ): 58.65 pmol oocyte-1 h-1 and 62.98 pmol oocyte-1 h-1 and 61.98 pmol oocyte-1 h-1
- PfCRTDd2-mediated PPQ transport 300 µM PPQ (0 µM CQ): 90.42 pmol oocyte-1 h-1 and 110.91 pmol oocyte-1 h-1 and 77.44 pmol oocyte-1 h-1
- PfCRTDd2-mediated PPQ transport 300 µM PPQ (25 µM CQ): 75.46 pmol oocyte-1 h-1 and 93.24 pmol oocyte-1 h-1 and 86.36 pmol oocyte-1 h-1
- PfCRTDd2-mediated PPQ transport 300 µM PPQ (50 µM CQ): 67.98 pmol oocyte-1 h-1 and 93.33 pmol oocyte-1 h-1 and 91.69 pmol oocyte-1 h-1
- PfCRTDd2-mediated PPQ transport 300 µM PPQ (125 µM CQ): 84.14 pmol oocyte-1 h-1 and 87.90 pmol oocyte-1 h-1 and 73.92 pmol oocyte-1 h-1
- PfCRTDd2-mediated PPQ transport 300 µM PPQ (200 µM CQ): 93.36 pmol oocyte-1 h-1 and 73.07 pmol oocyte-1 h-1 and 56.74 pmol oocyte-1 h-1 and 73.66 pmol oocyte-1 h-1
- PfCRTDd2-mediated PPQ transport 300 µM PPQ (400 µM CQ): 91.78 pmol oocyte-1 h-1 and 67.51 pmol oocyte-1 h-1 and 51.42 pmol oocyte-1 h-1
- PfCRTDd2-mediated PPQ transport 400 µM PPQ (0 µM CQ): 113.37 pmol oocyte-1 h-1 and 109.88 pmol oocyte-1 h-1 and 74.49 pmol oocyte-1 h-1
- PfCRTDd2-mediated PPQ transport 400 µM PPQ (25 µM CQ): 93.45 pmol oocyte-1 h-1 and 86.08 pmol oocyte-1 h-1 and 106.77 pmol oocyte-1 h-1
- PfCRTDd2-mediated PPQ transport 400 µM PPQ (50 µM CQ): 86.04 pmol oocyte-1 h-1 and 73.87 pmol oocyte-1 h-1 and 103.05 pmol oocyte-1 h-1
- PfCRTDd2-mediated PPQ transport 400 µM PPQ (125 µM CQ): 77.98 pmol oocyte-1 h-1 and 81.70 pmol oocyte-1 h-1 and 88.40 pmol oocyte-1 h-1
- PfCRTDd2-mediated PPQ transport 400 µM PPQ (200 µM CQ): 78.64 pmol oocyte-1 h-1 and 88.68 pmol oocyte-1 h-1 and 77.87 pmol oocyte-1 h-1
- PfCRTDd2-mediated PPQ transport 400 µM PPQ (400 µM CQ): 83.22 pmol oocyte-1 h-1 and 67.13 pmol oocyte-1 h-1 and 69.51 pmol oocyte-1 h-1
- PfCRTDd2-mediated PPQ transport 500 µM PPQ (0 µM CQ): 118.94 pmol oocyte-1 h-1 and 82.44 pmol oocyte-1 h-1 and 112.35 pmol oocyte-1 h-1
- PfCRTDd2-mediated PPQ transport 500 µM PPQ (25 µM CQ): 95.67 pmol oocyte-1 h-1 and 107.56 pmol oocyte-1 h-1 and 100.57 pmol oocyte-1 h-1
